Assay results taken from PubChem BioAssay (NCI).
Where “and” joins values, the source holds several entries; their conditions need not be identical. Equal entries are not always repeated.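 Protocol summary: plate cells (96-well), add compound at 5 concentrations, incubate 48 h, interpolate endpoints linearly. GI50 is the concentration that inhibits growth by half. TGI denotes the concentration required for complete inhibition of growth.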

Legend:
Assay in all cases: inhibition of tumour cell growth, NCI panel, 48 h; in the data active = GI50 below about 0.43 µM; inactive = the rest
A498 renal = system: A498 renal
COLO 205 colon = system: COLO 205 colon
HCT-15 colon = system: HCT-15 colon
HL-60(TB) leukemia = system: HL-60(TB) leukemia
LOX IMVI melanoma = system: LOX IMVI melanoma
M14 melanoma = system: M14 melanoma
NCI-H23 lung = system: NCI-H23 lung
UACC-62 melanoma = system: UACC-62 melanoma
HS 578T breast = system: HS 578T breast
MCF7 breast = system: MCF7 breast

O=c1nc(-c2ccccc2)cc(-c2ccccc2O)[nH]1
> 100 µM: TGI (A498 renal) | TGI (COLO 205 colon) | TGI (HCT-15 colon) | TGI (HL-60(TB) leukemia) | TGI (LOX IMVI melanoma) | TGI (M14 melanoma) | TGI (NCI-H23 lung) | TGI (UACC-62 melanoma)

Cc1cccc(C)c1NC(=O)C(=O)CC(=O)c1cccc([N+](=O)[O-])c1
> 100 µM: TGI (A498 renal) | TGI (COLO 205 colon) | TGI (HCT-15 colon) | TGI (HL-60(TB) leukemia) | TGI (M14 melanoma) | TGI (NCI-H23 lung) | TGI (UACC-62 melanoma)

O=C1C(Cl)=C(Nc2ccccc2O)C(=O)N1Cc1ccccc1
30.1 µM: TGI (LOX IMVI melanoma)
32.3 µM: TGI (M14 melanoma)
39.9 µM: TGI (HCT-15 colon)
46.8 µM: TGI (COLO 205 colon)
46.4 µM: TGI (UACC-62 melanoma)
64.6 µM: TGI (MCF7 breast)
31.7 µM: TGI (NCI-H23 lung)
inactive: GI50 (A498 renal) 18.4 µM | GI50 (COLO 205 colon) 24.2 µM | GI50 (HCT-15 colon) 19.5 µM | GI50 (HS 578T breast) 17.3 µM | GI50 (LOX IMVI melanoma) 16.5 µM | GI50 (M14 melanoma) 18.4 µM | GI50 (MCF7 breast) 24.5 µM | GI50 (NCI-H23 lung) 17.9 µM | GI50 (UACC-62 melanoma) 19.1 µM
38.1 µM: TGI (HS 578T breast)
40.6 µM: TGI (A498 renal)

O=C(O)CN(c1ccccc1)S(=O)(=O)c1ccc([N+](=O)[O-])cc1
> 100 µM: TGI (A498 renal) | TGI (COLO 205 colon) | TGI (HCT-15 colon) | TGI (HL-60(TB) leukemia) | TGI (LOX IMVI melanoma) | TGI (M14 melanoma) | TGI (NCI-H23 lung) | TGI (UACC-62 melanoma)

Cc1cc(C)n(-c2nnc3n2N=C(c2ccc(-c4ccccc4)cc2)CS3)n1
4.77 µM: TGI (COLO 205 colon)
inactive: GI50 (A498 renal) 2.03 µM | GI50 (COLO 205 colon) 2.23 µM | GI50 (HCT-15 colon) 3.51 µM | GI50 (HS 578T breast) 2.76 µM | GI50 (LOX IMVI melanoma) 3.36 µM | GI50 (MCF7 breast) 2.84 µM | GI50 (NCI-H23 lung) 4.79 µM | GI50 (UACC-62 melanoma) 2.49 µM
6.98 µM: TGI (UACC-62 melanoma)
> 100 µM: TGI (HCT-15 colon) | TGI (HS 578T breast) | TGI (LOX IMVI melanoma) | TGI (MCF7 breast) | TGI (NCI-H23 lung)
7.09 µM: TGI (A498 renal)

Nc1ccc2nc3n(c2c1)C(=O)c1ccccc1-3
> 100 µM: TGI (COLO 205 colon) | TGI (HCT-15 colon) | TGI (HL-60(TB) leukemia) | TGI (M14 melanoma) | TGI (MCF7 breast) | TGI (NCI-H23 lung) | TGI (UACC-62 melanoma)

O=C1CSC(c2ccc(-c3nc4ccccc4s3)cc2)=N1
> 100 µM: TGI (COLO 205 colon) | TGI (HCT-15 colon) | TGI (HL-60(TB) leukemia) | TGI (M14 melanoma)
59.7 µM: TGI (HS 578T breast)
26.9 µM: TGI (LOX IMVI melanoma)
45.2 µM: TGI (UACC-62 melanoma)
inactive: GI50 (COLO 205 colon) > 100 µM | GI50 (HCT-15 colon) 51.9 µM | GI50 (HL-60(TB) leukemia) 18.4 µM | GI50 (HS 578T breast) 20.2 µM | GI50 (LOX IMVI melanoma) 7.48 µM | GI50 (M14 melanoma) 38.6 µM | GI50 (UACC-62 melanoma) 18 µM

Clc1ccc(N=CNc2ccc(-c3nc4ccccc4o3)cc2)cc1
28 µM: TGI (HS 578T breast)
> 100 µM: TGI (COLO 205 colon) | TGI (HCT-15 colon) | TGI (HL-60(TB) leukemia) | TGI (M14 melanoma) | TGI (UACC-62 melanoma)
inactive: GI50 (COLO 205 colon) 22.7 µM | GI50 (HCT-15 colon) 24.5 µM | GI50 (HL-60(TB) leukemia) 38.5 µM | GI50 (HS 578T breast) 1.89 µM | GI50 (LOX IMVI melanoma) 12.5 µM | GI50 (M14 melanoma) 56.4 µM | GI50 (UACC-62 melanoma) 25.3 µM
25.8 µM: TGI (LOX IMVI melanoma)

OCC(O)CNc1ccnc2cc(Cl)ccc12 (configuration not stated)
> 100 µM: TGI (A498 renal) | TGI (COLO 205 colon) | TGI (HCT-15 colon) | TGI (HL-60(TB) leukemia) | TGI (LOX IMVI melanoma) | TGI (M14 melanoma) | TGI (NCI-H23 lung) | TGI (UACC-62 melanoma)

CCN(CC)c1cc2oc3cc(N)cc(=N)c-3nc2cc1C
4.92 µM: TGI (M14 melanoma)
> 100 µM: TGI (HCT-15 colon)
3.95 µM: TGI (COLO 205 colon)
7.25 µM: TGI (HS 578T breast)
17.9 µM: TGI (NCI-H23 lung)
inactive: GI50 (A498 renal) 16.3 µM | GI50 (COLO 205 colon) 1.9 µM | GI50 (HCT-15 colon) 3.14 µM | GI50 (HS 578T breast) 2.18 µM | GI50 (M14 melanoma) 2.25 µM | GI50 (MCF7 breast) 1.86 µM | GI50 (NCI-H23 lung) 2.11 µM | GI50 (UACC-62 melanoma) 2.06 µM
5.94 µM: TGI (UACC-62 melanoma)
4.49 µM: TGI (MCF7 breast)
74.7 µM: TGI (A498 renal)

C=CCn1c2c(sc1=S)C(S)N=CN2 (configuration not stated)
> 100 µM: TGI (A498 renal) | TGI (COLO 205 colon) | TGI (HCT-15 colon) | TGI (HL-60(TB) leukemia) | TGI (LOX IMVI melanoma) | TGI (M14 melanoma) | TGI (NCI-H23 lung) | TGI (UACC-62 melanoma)

COC(=O)/C(=C\c1ccc(N(CCC#N)CCC#N)cc1)NC(=O)c1cc([N+](=O)[O-])ccc1Cl
> 100 µM: TGI (A498 renal) | TGI (COLO 205 colon) | TGI (HCT-15 colon) | TGI (LOX IMVI melanoma) | TGI (M14 melanoma) | TGI (NCI-H23 lung) | TGI (UACC-62 melanoma)

CCOC(=O)/C(=C/c1cccc(C#N)c1)N(CC)CC
> 100 µM: TGI (A498 renal) | TGI (COLO 205 colon) | TGI (HCT-15 colon) | TGI (HL-60(TB) leukemia) | TGI (LOX IMVI melanoma) | TGI (M14 melanoma) | TGI (NCI-H23 lung) | TGI (UACC-62 melanoma)

O=C(O)C12CC3(C(=O)O)CC(C(=O)O)(CC(C(=O)O)(C1)C3=O)C2=O
> 100 µM: TGI (A498 renal) | TGI (COLO 205 colon) | TGI (HCT-15 colon) | TGI (HS 578T breast) | TGI (LOX IMVI melanoma) | TGI (M14 melanoma) | TGI (MCF7 breast) | TGI (NCI-H23 lung) | TGI (UACC-62 melanoma)

N#CC(C(=O)CCC(=O)Nc1cccc(C(F)(F)F)c1)c1ccc(Cl)cc1 (configuration not stated)
> 100 µM: TGI (A498 renal) | TGI (COLO 205 colon) | TGI (HCT-15 colon) | TGI (HL-60(TB) leukemia) | TGI (LOX IMVI melanoma) | TGI (M14 melanoma) | TGI (NCI-H23 lung) | TGI (UACC-62 melanoma)

Oc1ccc(Br)cc1C=Nc1ccc(N=Cc2cc(Br)ccc2O)cc1
> 100 µM: TGI (A498 renal) | TGI (HCT-15 colon) | TGI (HL-60(TB) leukemia) | TGI (LOX IMVI melanoma) | TGI (M14 melanoma) | TGI (NCI-H23 lung)

CCOc1ccccc1NC(=O)C(C#N)C1=C(Cl)C(=O)c2ccccc2C1=O (configuration not stated)
36.5 µM: TGI (A498 renal)
3.43 µM and 27.9 µM: TGI (COLO 205 colon)
2.94 µM: TGI (HCT-15 colon)
2.08 µM and 3.28 µM: TGI (LOX IMVI melanoma)
inactive: GI50 (COLO 205 colon) 12.6 µM | GI50 (HL-60(TB) leukemia) 2.85 µM | GI50 (LOX IMVI melanoma) 1.38 µM
3.05 µM and 3.14 µM: TGI (M14 melanoma)
3.24 µM and 3.36 µM: TGI (UACC-62 melanoma)
3.99 µM and 6.17 µM: TGI (NCI-H23 lung)

CC1=C(C(=O)NNS(=O)(=O)c2ccc(C)cc2)CC(C(=O)NNS(=O)(=O)c2ccc(C)cc2)=C(C)N1
47.2 µM: TGI (UACC-62 melanoma)
> 100 µM: TGI (COLO 205 colon) | TGI (HCT-15 colon) | TGI (HL-60(TB) leukemia) | TGI (LOX IMVI melanoma) | TGI (M14 melanoma) | TGI (NCI-H23 lung)

CN(C)CCSc1nccc(-c2cc3ccccc3s2)n1
35.1 µM: TGI (COLO 205 colon)
32.3 µM: TGI (M14 melanoma)
32.2 µM: TGI (LOX IMVI melanoma)
40.4 µM: TGI (UACC-62 melanoma)
58.3 µM: TGI (A498 renal)
37.6 µM: TGI (HCT-15 colon)

S=C1SC2=Nc3ccccc3CN2C2=NCCN12
83.2 µM: TGI (LOX IMVI melanoma)
> 100 µM: TGI (COLO 205 colon) | TGI (HCT-15 colon) | TGI (HL-60(TB) leukemia) | TGI (M14 melanoma) | TGI (MCF7 breast) | TGI (NCI-H23 lung) | TGI (UACC-62 melanoma)
inactive: GI50 (COLO 205 colon) 54.4 µM | GI50 (HCT-15 colon) 33 µM | GI50 (HL-60(TB) leukemia) 89.2 µM | GI50 (LOX IMVI melanoma) 25.9 µM | GI50 (M14 melanoma) > 100 µM | GI50 (MCF7 breast) 51.5 µM | GI50 (NCI-H23 lung) > 100 µM | GI50 (UACC-62 melanoma) 72.5 µM

O=C(O)CSc1n[nH]c(Cc2ccccc2)n1
> 100 µM: TGI (HCT-15 colon) | TGI (HL-60(TB) leukemia) | TGI (LOX IMVI melanoma) | TGI (M14 melanoma) | TGI (NCI-H23 lung) | TGI (UACC-62 melanoma)
